Results as given in US20260297060A1, “COMPOUNDS FOR THE DEGRADATION OF MUTANT BRAF” (C4 THERAPEUTICS, INC., priority 2023, published 2026).
Like-named read-outs stand apart in the source and are kept apart here.

Assays:
[1] = Example 9 pharmacokinetics assay for the PK and PD study Part I, II and III (plasma, tumor, liver); type: in vivo, BALB/c nude mice; conditions: mouse, po, 10 mg/kg, p.o., single dose, ± SEM
Experimental: For the PK and PD study Part I, agents were administered to BALB/c nude mice bearing A375 human melanoma xenografts tumors. Dabrafenib, Compound 218 and Compound 157 were dosed via p.o. once on day 1. Dabrafenib was dosed at 100 mg/kg. Compound 218 and Compound 157 were dosed at 10 mg/kg.
For the PK and PD study Part II, agents were administered to BALB/c nude mice bearing A375 human melanoma xenografts tumors. Compound 133, Compound 144 and Compound 198 were dosed at 10 mg/kg via p.o. once on day 1.
For the PK and PD study Part III, agent was administered to BALB/c nude mice bearing A375 human melanoma xenografts tumors. Compound 204 were dosed at 10 mg/kg via p.o. once on day 1.
The plasma samples were collected at predetermined time points for PK analysis. The mice were euthanized at predetermined time points post the treatment. The blood samples were collected into the 1.5 mL Eppendorf tubes containing 15 μL of 0.5 M EDTA-K2. And then the anticoagulant blood samples were centrifuged at 2,500 g at 4° C. for 15 minutes. The plasma samples were separated into 2 aliquots. The 1st was used for PK analysis, and the 2nd served as backup. The samples were stored at −80° C. before bioanalysis.
The tumor samples were collected at predetermined time points for PK and WB analysis. The tumor was dissected out and split into 3 parts. The 1st part was used for PK analysis, the 2nd part was used for WB analysis and the last one served as backup for study. The samples were transferred into pre-labeled tubes and quickly froze in liquid nitrogen within 2 minutes after dissection. The samples were stored at −80° C. before bioanalysis.
Liver samples were collected at predetermined time points for PK analysis. The left lobe of the liver was dissected out and split into 2 parts. The 1st part was used for PK analysis and the 2nd part served as the backup for the study. The samples were transferred into pre-labeled tubes and quickly froze in liquid nitrogen within 2 minutes after dissection. The samples were stored at −80° C. before bioanalysis.
The harvested plasma, tumor and liver samples were processed for pharmacokinetics analysis by LC-MS/MS with a concentration range of 5.00-10,000 ng/mL for Compound 218, Compound 157 and Compound 133 in plasma, 0.500-1,000 ng/ml for Compound 218 in liver and tumor homogenate, 0.200-400 ng/mL for Compound 157, Dabrafenib and Compound 133 in liver and tumor homogenate, 0.500-1000 ng/mL for Dabrafenib and Compound 204 in plasma, 0.200-200 ng/mL for Compound 204 in liver and tumor homogenate, 20.0-20,000 ng/mL for Compound 144 and Compound 198 in plasma, 1.00-1,000 ng/mL for Compound 144 and Compound 198 in liver and tumor homogenate.

[2] = target: T1, human bile salt export pump (BSEP) efflux transporter (Homo sapiens, UniProt O95342); test: BSEP Vesicular Transport Inhibition Assay (IC50 determination); type: biochemical; conditions: human BSEP (HEK293) vesicles; taurocholate 0.2 μM; 4 mM Mg-ATP; 10 concentrations, 1 replicate; in nM
T1 construct: purchased SOLVO Biotechnology Charles River Laboratories, Szeged, Hungary; host or cells: HEK293 (inside out membrane vesicles)
Method in brief: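 Inside-out membrane vesicles from HEK293 cells expressing human BSEP were incubated with taurocholate probe substrate and compound (10 concentrations, single replicate) with 4 mM Mg-ATP, or 4 mM AMP for background, for 5 min at 37 °C. Vesicle-trapped substrate was quantified by liquid scintillation counting after filtration.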

[3] = liver, read-out: Mean Concentration in Liver
[4] = plasma, read-out: Mean Concentration in Plasma
[5] = tumor, read-out: Mean Concentration in Tumor

T1 sequence (O95342 whole entry): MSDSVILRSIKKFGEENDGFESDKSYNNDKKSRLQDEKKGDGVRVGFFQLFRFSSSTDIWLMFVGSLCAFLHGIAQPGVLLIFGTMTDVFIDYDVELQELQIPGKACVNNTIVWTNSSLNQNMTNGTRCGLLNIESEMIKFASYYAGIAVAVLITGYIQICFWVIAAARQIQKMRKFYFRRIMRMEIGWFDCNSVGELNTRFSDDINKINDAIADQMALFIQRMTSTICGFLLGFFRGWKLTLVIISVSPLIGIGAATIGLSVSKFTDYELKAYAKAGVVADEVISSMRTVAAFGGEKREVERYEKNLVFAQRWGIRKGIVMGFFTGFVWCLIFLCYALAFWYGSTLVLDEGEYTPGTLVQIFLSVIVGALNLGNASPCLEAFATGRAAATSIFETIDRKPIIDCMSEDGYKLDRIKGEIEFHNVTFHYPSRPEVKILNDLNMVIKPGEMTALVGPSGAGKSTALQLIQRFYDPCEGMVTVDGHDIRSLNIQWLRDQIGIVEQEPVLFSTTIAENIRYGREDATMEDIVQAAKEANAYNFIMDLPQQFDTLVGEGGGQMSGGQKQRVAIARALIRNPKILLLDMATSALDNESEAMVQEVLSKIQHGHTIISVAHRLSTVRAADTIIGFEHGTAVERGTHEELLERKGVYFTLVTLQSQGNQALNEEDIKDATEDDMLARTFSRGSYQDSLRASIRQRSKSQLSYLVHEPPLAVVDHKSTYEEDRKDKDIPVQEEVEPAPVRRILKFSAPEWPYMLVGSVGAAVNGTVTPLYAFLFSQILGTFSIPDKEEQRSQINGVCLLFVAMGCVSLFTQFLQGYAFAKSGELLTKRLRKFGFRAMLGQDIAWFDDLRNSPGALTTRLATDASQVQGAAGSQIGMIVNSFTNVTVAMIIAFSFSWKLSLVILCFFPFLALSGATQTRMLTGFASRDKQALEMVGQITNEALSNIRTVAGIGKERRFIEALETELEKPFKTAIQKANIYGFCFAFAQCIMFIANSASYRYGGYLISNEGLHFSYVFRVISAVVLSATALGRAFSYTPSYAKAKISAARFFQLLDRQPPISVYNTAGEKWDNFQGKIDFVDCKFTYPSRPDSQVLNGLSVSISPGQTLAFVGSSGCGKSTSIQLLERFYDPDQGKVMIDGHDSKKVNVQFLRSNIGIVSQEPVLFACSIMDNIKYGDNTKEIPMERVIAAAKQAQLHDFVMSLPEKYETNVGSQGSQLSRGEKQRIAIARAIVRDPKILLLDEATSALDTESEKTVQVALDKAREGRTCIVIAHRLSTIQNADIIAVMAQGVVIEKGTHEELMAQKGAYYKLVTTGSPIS

- concentration at 6 h [1, 3]: 2240 ± 416 ng/g
- concentration at 12 h [1, 3]: 1020 ± 177 ng/g
- concentration at 1 h [1, 4]: 2430 ± 91.7 ng/mL
- concentration at 6 h [1, 4]: 2670 ± 117 ng/mL
- concentration at 12 h [1, 4]: 1700 ± 172 ng/mL
- concentration at 24 h [1, 4]: 573 ± 94.2 ng/mL
- concentration at 1 h [1, 5]: 441 ± 38.8 ng/g
- concentration at 6 h [1, 5]: 1120 ± 28.5 ng/g
- concentration at 12 h [1, 5]: 776 ± 107 ng/g
- concentration at 24 h [1, 5]: 383 ± 128 ng/g
Compound: CCN(C)S(=O)(=O)Nc1ccc(F)c(Oc2ccc3ncn(C4CC5(CCN(C6CC7(CCN(c8cc9c(cc8F)c(N8CCC(=O)NC8=O)nn9C)CC7)C6)CC5)C4)c(=O)c3c2)c1C#N (centres unmarked) [Compound 198, 6-[2-cyano-3-[[ethyl(methyl)sulfamoyl]amino]-6-fluoro-phenoxy]-3-[7-[7-[3-(2,4-dioxohexahydropyrimidin-1-yl)-5-fluoro-1-methyl-indazol-6-yl]-7-azaspiro[3.5]nonan-2-yl]-7-azaspiro[3.5]nonan-2-yl]-4-oxo-quinazoline]
- BSEP Inhibition/IC50 [2]: 15250
